Measured values published in patent US20110040086A1, “Novel Beta-Lactam Antibiotics, Methods for Their Production, and Their Use” (DRITTE PATENTPORTFOLIO BETEILIGUNGSGESELLSCHAFT MB, priority 2007, published 2011).

Columns and labels:
[1] = tested on: Enterococcus faecalis 769; assay: agar diffusion test (Test System II, multi-resistant germs); format: cell-based; set-up: key: r = resistant (no detectable zone of inhibition)
Method in brief: (§1)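 Stepped amounts of each substance (10, 50, 100 μg) were applied to carrier discs from methanol or water according to solubility. These were laid on Müller-Hinton agar II inoculated at McFarland 0.5, and zones of inhibition were read following overnight incubation (18-20 h) at 37 °C.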

[2] = tested on: Staphylococcus aureus 315; assay: as above; format: cell-based; set-up: key: r = resistant (no detectable zone of inhibition)
Method in brief: as §1

[3] = tested on: Staphylococcus haemolyticus 535; assay: as above; format: cell-based; set-up: key: r = resistant (no detectable zone of inhibition)
Method in brief: as §1

[4] = tested on: S. aureus 33490; assay: as above; format: cell-based, Staphylococcus aureus; set-up: key: r = resistant (no detectable zone of inhibition); conditions: quantity 0.09 μmol
Method in brief: as §1

[5] = tested on: S. aureus 36881; assay: as above; format: cell-based, Staphylococcus aureus; set-up: key: r = resistant (no detectable zone of inhibition)
Method in brief: as §1

[6] = tested on: S. aureus 520; assay: as above; format: cell-based, Staphylococcus aureus; set-up: key: r = resistant (no detectable zone of inhibition)
Method in brief: as §1

[7] = tested on: S. aureus 38418; assay: as above; format: cell-based, Staphylococcus aureus
Method in brief: as §1

[8] = tested on: S. aureus ATCC 6538; assay: as above; format: cell-based, Staphylococcus aureus
Method in brief: as §1

[9] = tested on: S. epidermidis 847; assay: as above; format: cell-based, Staphylococcus epidermidis; set-up: key: r = resistant (no detectable zone of inhibition)
Method in brief: as §1

[10] = tested on: S. epidermidis 125; assay: as above; format: cell-based, Staphylococcus epidermidis
Method in brief: as §1

[11] = tested on: Staphylococcus aureus col.; assay: as above; format: cell-based; conditions: quantity 0.09 μmol
Experimental: The test substances are deposited in stepped quantities (10 μg, 50 μg, 100 μg) onto active ingredient carriers (sensi-discs). For this purpose, the test substances are dissolved in methanol or A. dest. according to their solubility. Each inoculated plate is fitted with 3 test sheets.
Test System II (Effect Against Multi-Resistant Germs)
For this purpose, bacteria is cultivated on Müller-Hinton-Agar II plates.
With 1-1.5 ml physiological saline solution, a bacteria suspension of McFarland 0.5 (corresponds to a bacteria density of 150×10^6 germs) is produced. Then, with a sterile glass rod, a small drop of bacteria suspension is placed on the Müller-Hinton-Agar plate and coated in three layers (vertical, horizontal, and transverse). Thereafter, the sensi-discs with the novel semi-synthetic test substances are placed on top. The fitted plates are incubated for 18-20 hours at 37° C. After incubation, the diameters of the zones of inhibition are read as a measure for the antimicrobial activity of the novel semi-synthetic test substances.

[12] = tested on: S. aureus North Germany strain; assay: as above; format: cell-based, Staphylococcus aureus; set-up: key: r = resistant (no detectable zone of inhibition)
Method in brief: as §1

[13] = tested on: Staphylococcus aureus ATCC 6538; assay: mouse infected with Staphylococcus aureus infection model (survival); format: in vivo, BALB/c mice
Method in brief: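 BALB/c mice, at least 3 per group, made neutropenic with cyclophosphamide i.p. (250 mg/kg day 0, 100 mg/kg day 2). Infected i.p. on day 3 with 10 μl/g of S. aureus suspension at OD550 0.6 (ca. 10^10-10^12 CFU). Antibiotic given i.p. in PBS with 3% DMSO 30 min post-infection, then repeated; survival recorded.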

[14] = Quantity n 0.02 mol (first line per ingredient)
[15] = Quantity n 0.1 mol (second line per ingredient)
[16] = Quantity n 0.2 mol (third line per ingredient)
[17] = Quantity n 0.02 (first line per ingredient)
[18] = Quantity n 0.1 (second line per ingredient)
[19] = Quantity n 0.2 (third line per ingredient)

Row | Molecule | Diameter of zone of inhibition, Enterococcus faecalis 769 ([1]; Quantity n 0.02) | Diameter of zone of inhibition, Enterococcus faecalis 769 ([1]; Quantity n 0.1) | Diameter of zone of inhibition, Enterococcus faecalis 769 ([1]; Quantity n 0.2) | Diameter of zone of inhibition, Staphylococcus aureus 315 ([2]; Quantity n 0.02 mol) | Diameter of zone of inhibition, Staphylococcus aureus 315 ([2]; Quantity n 0.1 mol) [mm] | Diameter of zone of inhibition, Staphylococcus aureus 315 ([2]; Quantity n 0.2 mol) [mm] | Diameter of zone of inhibition [3, 14] | Diameter of zone of inhibition [3, 15] | Diameter of zone of inhibition [3, 16] [mm] | Diameter of zone of inhibition, S. aureas 36881 ([5]; Quantity n 0.02 mol) | Diameter of zone of inhibition, S. aureas 36881 ([5]; Quantity n 0.1 mol) | Diameter of zone of inhibition, S. aureas 36881 ([5]; Quantity n 0.2 mol) [mm] | Diameter of zone of inhibition, S. aureus 520 ([6]; Quantity n 0.02 mol) | Diameter of zone of inhibition, S. aureus 520 ([6]; Quantity n 0.1 mol) | Diameter of zone of inhibition, S. aureus 520 ([6]; Quantity n 0.2 mol) [mm] | Diameter of zone of inhibition, S. aureus North German strain [12, 14] | Diameter of zone of inhibition, S. aureus North German strain [12, 15] [mm] | Diameter of zone of inhibition, S. aureus North German strain [12, 16] [mm] | Diameter of zone of inhibition, S. aureas 38418 ([7]; Quantity n 0.02) | Diameter of zone of inhibition, S. aureas 38418 ([7]; Quantity n 0.1) [mm] | further results
1 | CC1(C)SC2C(NC(=O)C(NC3=C(C(=O)NCCO)C(=O)C=CC3=O)c3ccc(O)cc3)C(=O)N2C1C(=O)O (stereo not shown) [6-{2-[2-(2-hydroxyethylcarbamoyl)-3,6-dioxocyclohexa-1,4-dienylamino]-2-(4-hydroxyphenyl)-acetylamino-penicillanic acid] | – | – | – | – | – | – | – | – | – | – | – | – | – | – | – | – | – | – | – | – | Diameter of zone of inhibition ([1]; quantity 0.09 μmol): 28 mm; Diameter of zone of inhibition ([2]; quantity 0.09 μmol): r; Diameter of zone of inhibition ([3]; quantity 0.09 μmol): r; Diameter of zone of inhibition [4]: 18 mm; Diameter of zone of inhibition ([5]; quantity 0.09 μmol): r^2; Diameter of zone of inhibition ([6]; quantity 0.09 μmol): r; Diameter of zone of inhibition ([7]; quantity 0.09 μmol): 34 mm; Diameter of zone of inhibition ([8]; quantity 0.09 μmol): 44 mm; Diameter of zone of inhibition ([9]; quantity 0.09 μmol): 24 mm; Diameter of zone of inhibition ([10]; quantity 0.09 μmol): 28 mm; Diameter of zone of inhibition [11]: 32 mm
2 | 3-chlorine-7-[2-(5-methyl-3,4-dioxocyclohexa-1,5-dienylamino)-2-phenyl-acetylamino]-8-oxo-5-azabicyclo[4.2.0]oct-3-ene-4-carboxylic acid [1s] | r | r | r | r | 8 | 12 | r | r | 10 | r | r | 10 | r | r | 10 | r | 8 | 14 | 14 mm | 24 | Diameter of zone of inhibition, S. aureas 38418 ([7]; Quantity n 0.2): 28 mm; Diameter of zone of inhibition, S. aureus ATCC 6538 [8, 14]: 20 mm; Diameter of zone of inhibition, S. aureus ATCC 6538 [8, 15]: 30 mm; Diameter of zone of inhibition, S. aureus ATCC 6538 [8, 16]: >30 mm; Diameter of zone of inhibition, S. epidermidis 847 [9, 17]: r; Diameter of zone of inhibition, S. epidermidis 847 [9, 18]: 14 mm; Diameter of zone of inhibition, S. epidermidis 847 [9, 19]: 18 mm; Diameter of zone of inhibition, S. epidermidis 125 [10, 14]: 14 mm; Diameter of zone of inhibition, S. epidermidis 125 [10, 15]: 22 mm; Diameter of zone of inhibition, S. epidermidis 125 [10, 16]: 26 mm
3 | CC1=CC(NC(C(=O)NC2C(=O)N3C(C(=O)O)=C(C)CSC23)c2ccc(O)cc2)=CC(=O)C1=O (stereo not shown) [1q] | r^1 | r | 10 mm | r | 10 | 14 | r | r | 10 | r | r | 10 | r | r | 10 | r | 10 | 12 | 10^2 mm | 18 | Diameter of zone of inhibition, S. aureas 38418 ([7]; Quantity n 0.2): 22 mm; Diameter of zone of inhibition, S. aureus ATCC 6538 [8, 14]: 16 mm; Diameter of zone of inhibition, S. aureus ATCC 6538 [8, 15]: 20 mm; Diameter of zone of inhibition, S. aureus ATCC 6538 [8, 16]: 26 mm; Diameter of zone of inhibition, S. epidermidis 847 [9, 17]: r; Diameter of zone of inhibition, S. epidermidis 847 [9, 18]: 14 mm; Diameter of zone of inhibition, S. epidermidis 847 [9, 19]: 16 mm; Diameter of zone of inhibition, S. epidermidis 125 [10, 14]: 12 mm; Diameter of zone of inhibition, S. epidermidis 125 [10, 15]: 20 mm; Diameter of zone of inhibition, S. epidermidis 125 [10, 16]: 26 mm; Survival/tested mice n/n ([13]; 2 × 0.5 mg (25 mg/kg) i.p.): 3/6; Survival/tested mice n/n ([13]; 2 × 1.0 mg (50 mg/kg) i.p.): 1/3
